Source: patent US20080227796A1, “7-Amino-6-Hetaryl-1,2,4-Triazolo[1,5-A]Pyrimidine Compounds and the Use Thereof for Controlling Pathogenic Fungi” (BASF Aktiengesellschaft, priority 2004, published 2008)

System: Puccinia recondita
Experiment: Protective activity against Puccinia recondita on wheat (brown rust of wheat)
Type: in vivo
Conditions: 250 ppm, protective: wheat seedlings sprayed the day before inoculation, visual rating after a further 7 days; untreated plants 90% infected
Procedure: The respective active compound was prepared as a stock solution with 25 mg of active compound which was made up to 10 ml with a mixture of acetone and/or dimethyl sulfoxide (DMSO) and the emulsifier Uniperol® EL (wetting agent having emulsifying and dispersing action based on ethoxylated alkylphenols) in a volume ratio solvent/emulsifier of 99 to 1. The solution was then made up to 100 ml with water. This stock solution was diluted to the active compound concentration stated below using the solvent/emulsifier/water mixture described.
Leaves of potted wheat seedlings of the cultivar “Kanzler” were sprayed to runoff point with an aqueous suspension having the active compound concentration stated below. The next day, the treated plants were inoculated with a spore suspension of brown rust of wheat (Puccinia recondita). The plants were then placed in a chamber with high atmospheric humidity (90 to 95%) at 20 to 22° C. for 24 hours. During this time, the spores germinated and the germ tubes penetrated into the leaf tissue. The next day, the test plants were returned to the greenhouse and cultivated at temperatures between 20 and 22° C. and 65 to 70% relative atmospheric humidity for a further 7 days. The extent of the rust fungal development on the leaves was then determined visually.

Cc1cc(-c2c(Cl)nc3ncnn3c2N[C@H](C)C(C)C)ccn1 [Example 59]
infection: no infection
